Measurements published in PMC4594923, “Food Polyphenols Fail to Cause a Biologically Relevant Reduction of COX-2 Activity” (PLoS ONE, 2015).
Entries after “also recorded” stand apart in the source; their conditions may differ. Marks after values point to notes of the source that are not given here.

How the values were obtained:
[1] = test system: arachidonic acid (AA) cascade; experiment: liver tissue oxylipin/PG levels in LPS induced sepsis in mice; assay type: in vivo, C57BL/6N mice; details: liver tissue 24 h after LPS treatment;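 note: male C57BL/6N mice pretreated i.p. with polyphenols at 100 mg/kg bw or vehicle before LPS, liver oxylipins measured by LC-MS after solid-phase extraction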
Text: Twelve week old male C57BL/6N mice (Charles River, Sulzfeld, Germany) were used for all experiments. C57BL/6 male mice (H2^b, 11–13 weeks of age) were obtained from Charles River (Sulzfeld, Germany). Animals were cared for in accordance with the institution’s guidelines for experimental animals and with the guidelines of the American Physiological Society. […] Mice were monitored closely and if they appeared compromised (i.e. inactivity, no intake of food or water) after compound or LPS injection the experiment was terminated.
Oxylipin levels were analyzed in plasma and tissues by LC-MS following SPE extraction of 200 μl plasma or tissue homogenate (50 mg) on Chromabond C18 ec cartridges (Machery-Nagel, Düren, Germany) [19].
(§1) GraphPad Prism 5.0 (GraphPad Software, San Diego, USA) was used for data analysis, the fitting of dose response curves and calculation of the IC50 values. Statistical differences were determined by Dunnetts test (LPS vs. other groups).

IL–6 = experiment: kidney IL–6 mRNA (qPCR) in LPS induced sepsis in mice; assay type: in vivo, C57BL/6N mice; details: compound i. p. 100 mg/kg bw 2 h before LPS, 24 h after LPS
Protocol: Samples were stored at -80°C till further analysis. […] Plasma was generated by centrifugation at 4000 g at 4°C and stored at -80°C till further analysis.
Tissue sections were stored in RNA-later immediately after organ retrieval. Total RNA was extracted using the RNeasy mini kit system (Qiagen, Hilden, Germany) and transcribed using Superscript II Reverse transcriptase (Invitrogen). Quantitative (q) PCR was performed on […] (Roche Diagnostics, Penzberg, Germany) using FastStart Sybr-Green chemistry. Gene-specific primers for IL–6 (Quantitec QT00098875, Qiagen) and MCP–1 (Quantitec QT00167832, Qiagen) were used for the gene of interest and HPRT served as house keeping gene for normalization (Quantitec QT00166768, Qigaen). Quantification was carried out using qgene software.

ovine recombinant COX–1 = target: T1, ovine recombinant COX–1 (Ovis aries, UniProt P05979); experiment: cell-free COX–1 enzyme assay (PGE2 formation, LC-MS); assay type: biochemical; design: purchased Cayman Chemicals/ Biomol, Hamburg, Germany
T1 sequence (P05979 25-600): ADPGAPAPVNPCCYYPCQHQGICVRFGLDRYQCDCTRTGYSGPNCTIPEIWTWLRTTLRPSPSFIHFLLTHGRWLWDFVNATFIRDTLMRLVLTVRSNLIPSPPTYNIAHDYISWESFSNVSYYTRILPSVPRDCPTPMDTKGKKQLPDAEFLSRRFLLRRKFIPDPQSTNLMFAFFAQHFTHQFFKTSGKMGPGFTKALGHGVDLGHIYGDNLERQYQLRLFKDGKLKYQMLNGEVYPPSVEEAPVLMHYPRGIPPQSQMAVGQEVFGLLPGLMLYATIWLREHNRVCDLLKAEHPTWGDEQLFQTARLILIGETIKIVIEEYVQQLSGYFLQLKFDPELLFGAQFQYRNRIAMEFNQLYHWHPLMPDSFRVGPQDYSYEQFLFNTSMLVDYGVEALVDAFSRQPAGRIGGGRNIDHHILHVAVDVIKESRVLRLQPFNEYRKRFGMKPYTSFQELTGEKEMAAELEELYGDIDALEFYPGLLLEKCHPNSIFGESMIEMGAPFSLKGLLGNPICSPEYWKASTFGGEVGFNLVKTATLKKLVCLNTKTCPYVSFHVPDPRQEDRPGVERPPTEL
Protocol: The in vitro assays were performed as described [6, 16, 18] and COX metabolites were quantified by LC-MS [18].
Primary human monocytes were freshly isolated from human blood. Blood was collected from healthy human subjects after written informed consent was obtained. […] After 24 h, the supernatant was sampled for LC-MS and cells were collected for the COX–2 expression analysis by Western Blotting.
as §1

Oc1ccc(/C=C/c2cc(O)cc3c2[C@@H](c2cc(O)cc(O)c2)[C@H](c2ccc(O)cc2)O3)cc1 [ε-Viniferin, ε-viniferin]
4,5-DiHDPE concentration ([1]; mean): 20 nM | 4-HDHA concentration ([1]; mean): 6.8 nM | 5(6)-EpETrE concentration ([1]; mean): 45 nM | 5,6-DiHETE concentration ([1]; mean): < 0.30 nM | 5,6-DiHETrE concentration ([1]; mean): 1.9 nM | 5-HEPE concentration ([1]; mean): 1.2 nM | 5-HETE concentration ([1]; mean): 1.2 nM | 5-iPF2α concentration ([1]; mean): 2.3^‡ nM | 5-oxo-ETE concentration ([1]; mean): 14 nM | 6-keto-PGF1α concentration ([1]; mean): 29 nM | 7,8-DiHDPE concentration ([1]; mean): 1.9 nM | 7-HDHA concentration ([1]; mean): 1.7 nM | 8(9)-EpETE concentration ([1]; mean): 1.5 nM | 8(9)-EpETrE concentration ([1]; mean): 9.8 nM | 8,9-DiHETE concentration ([1]; mean): 1.2 nM | 8,9-DiHETrE concentration ([1]; mean): 4.4 nM | 8,15-DiHETE concentration ([1]; mean): < 0.80 nM | 8-HDHA concentration ([1]; mean): 9.0 nM | 8-HEPE concentration ([1]; mean): < 0.60 nM | 8-HETE concentration ([1]; mean): 4.2 nM | 8-iPF2α concentration ([1]; mean): < 0.10 nM | 9(10)-EpODE concentration ([1]; mean): 9.2 nM | 9(10)-EpOME concentration ([1]; mean): 84 nM | 9(10)-Epoxystearic acid concentration ([1]; mean): 66 nM | 9,10,13-TriHOME concentration ([1]; mean): 16 nM | 9,10-DiHODE concentration ([1]; mean): 3.9 nM | 9,10-DiHOME concentration ([1]; mean): 43^* nM | 9,10-Dihydroxystearic acid concentration ([1]; mean): 170 nM | 9,12,13-TriHOME concentration ([1]; mean): 110 nM | 9-HETE concentration ([1]; mean): 2.9 nM | 9-HODE concentration ([1]; mean): 250 nM | 9-HOTrE concentration ([1]; mean): 5.0 nM | 9-oxo-ODE concentration ([1]; mean): 53 nM | 10(11)-EpDPE concentration ([1]; mean): 15 nM | 10,11-DiHDPE concentration ([1]; mean): 2.2^† nM | 10-HDHA concentration ([1]; mean): 2.2 nM | 11(12)-EpETE concentration ([1]; mean): 2.0 nM | 11(12)-EpETrE concentration ([1]; mean): 27 nM | 11,12-DiHETE concentration ([1]; mean): 1.0^* nM | 11,12-DiHETrE concentration ([1]; mean): 5.5^† nM | 11-HDHA concentration ([1]; mean): 2.8 nM | 11-HETE concentration ([1]; mean): 7.0 nM | 12(13)-EpODE concentration ([1]; mean): 3.9 nM | 12(13)-EpOME concentration ([1]; mean): 72 nM | 12,13-DiHODE concentration ([1]; mean): < 2.0 nM | 12,13-DiHOME concentration ([1]; mean): 45^‡ nM | 12-HEPE concentration ([1]; mean): 6.8 nM | 12-HETE concentration ([1]; mean): 32 nM | 13(14)-EpDPE concentration ([1]; mean): 12 nM | 13,14-DiHDPE concentration ([1]; mean): 1.6^‡ nM | 13,14-dihydro-15-keto-PGE1 concentration ([1]; mean): 0.62 nM | 13,14-dihydro-15-keto-PGF2α concentration ([1]; mean): 7.0 nM | 13-HDHA concentration ([1]; mean): 3.8 nM | 13-HODE concentration ([1]; mean): 230 nM | 13-HOTrE concentration ([1]; mean): 8.5 nM | 13-oxo-ODE concentration ([1]; mean): 9.4 nM | 14(15)-EpETE concentration ([1]; mean): 1.8 nM | 14(15)-EpETrE concentration ([1]; mean): 21 nM | 14,15-DiHETE concentration ([1]; mean): 2.1^‡ nM | 14,15-DiHETrE concentration ([1]; mean): 12^‡ nM | 14-HDHA concentration ([1]; mean): 18 nM | 15(16)-EpODE concentration ([1]; mean): 12 nM | 15(S)-HETrE concentration ([1]; mean): 5.2 nM | 15,16-DiHODE concentration ([1]; mean): 17^† nM | 15-HEPE concentration ([1]; mean): 1.7 nM | 15-HETE concentration ([1]; mean): 14 nM | 15-oxo-ETE concentration ([1]; mean): 2.8 nM | 16(17)-EpDPE concentration ([1]; mean): 11 nM | 16,17-DiHDPE concentration ([1]; mean): 3.0^‡ nM | 16-HDHA concentration ([1]; mean): 2.4 nM | 17(18)-EpETE concentration ([1]; mean): 3.2 nM | 17,18-DiHETE concentration ([1]; mean): 5.6^‡ nM | 17-HDHA concentration ([1]; mean): 9.0 nM | 18-HEPE concentration ([1]; mean): 1.6 nM | 19(20)-EpDPE concentration ([1]; mean): 17 nM | 19,20-DiHDPE concentration ([1]; mean): 17^‡ nM | 20-HDHA concentration ([1]; mean): 9.1^* nM | 20-HEPE concentration ([1]; mean): 4.1^‡ nM | 20-HETE concentration ([1]; mean): < 2.6 nM | EKODE concentration ([1]; mean): 34 nM | PGD1 concentration ([1]; mean): 0.91 nM | PGD2 concentration ([1]; mean): 13 nM | PGE1 concentration ([1]; mean): 0.88 nM | PGE2 concentration ([1]; mean): 4.2 nM | PGF1α concentration ([1]; mean): 2.5 nM | TXB2 concentration ([1]; mean): 8.4 nM | TxB3 concentration ([1]; mean): < 0.05 nM | dihomo-PGF2α concentration ([1]; mean): 1.0 nM | PGF2α concentration ([1]; mean (first listing, r6)): 12 nM | PGF2α concentration ([1]; mean (second listing, r9)): 12 nM | further increase of kidney IL–6 mRNA expression in comparison to LPS group (IL–6): 28 fold | effect on COX–1 dependent PGE2 formation, cell-free enzyme assay (ovine recombinant COX–1): dose-dependently decreased; also recorded: inhibited | IC50 (ovine recombinant COX–1; calculated based on PGE2, n = 3, read-out: IC50 (95% CI), COX–1 enzyme assay): 1600 nM
